For three molecules, IC50 results are on record in patent US20110207944A1, “VITAMIN D3 LACTAM DERIVATIVE” (TEIJIN PHARMA LIMITED, priority 2008, published 2011).

For this test, the system named is HL-60 cells. The test can be described thus: Vitamin D3 receptor-antagonist effect: inhibition of 1α,25-dihydroxyvitamin D3-induced differentiation of HL-60 (NBT reduction activity). It is filed as cell-based. The note with it: Homo sapiens, 96 h; NBT-positive HL-60 cells, co-treatment with 1α,25-dihydroxyvitamin D3 1×10^−8 M, 4 days. From the text: Vitamin D3 Receptor-Antagonist Effect in Terms of Cellular Differentiation-Inducing Activity of 1α,25-dihydroxyvitamin D3 in HL-60 as a Marker
(1) A HL-60 cell line purchased from a cell bank (Japanese Cancer Research Resource Bank, Cell number: JCRB0085) was used. The cells were frozen for storage as a frozen storage stock to prevent cell characteristic changes due to successive cultivations. The cells were defrosted prior to the initiation of the experiment, and those which started successive culturing were used in the experiment. Cells subcultured for one month to a half year were used for the experiment. The successive culturing was carried out by diluting the cells at a ratio of about 1/100 (1-2×10^4 cells/mL) in a fresh medium after the collection of cells from a cell suspension by centrifugation. RPMI-1640 supplemented with 10% fetal bovine serum was used as the culture medium.
(2) The subcultured cells by the procedure described in (1) were collected by centrifugation and re-suspended in the medium at 5×10^3 cells/mL, and the cells were plated into a 24-well culture dish at 1 mL/well. To this system, a solution of 1α,25-dihydroxyvitamin D3 at a concentration of 1×10^−5 M and the compounds of the present invention in a range of […] to 3×10^−3 M in ethanol, respectively, were added at 1 μL per well (the final concentration: 1×10^−8 M for 1α,25-dihydroxyvitamin D3, and 1×10^−9 M to 3×10^−6 M for the compounds of the present invention). Ethanol was added at 1 μL per well as a control. After the plate was incubated at 37° C. for 4 days in the presence of 5% CO2, the cells were separated and collected by centrifugation.
(3) The induction of nitroblue tetrazolium (hereinafter NBT) reduction activity was used as a marker for cell differentiation-inducing activity of HL-60 cells. The measurement of NBT reduction activity was carried out according to the following procedure. Specifically, cells collected by centrifugation were re-suspended in a fresh medium. Then 0.1% of NBT and 12-O-tetradecanoylphorbor-13-acetate at a final concentration of 100 ng/mL were added to the cell suspension and the mixture was incubated at 37° C. for 25 minutes. Then the cytospin smears were prepared and stained with Kernechtrot after air-drying. The ratio of positive cells expressing NBT reduction activity was determined under optical microscopy. Percentage ratios of the ratio of NBT-positive cells in a simultaneous treatment with 1α,25-dihydroxyvitamin D3 (1×10^−8 M) and a compound of the present invention (1×10^−9M and 3×10^−6 M) over the ratio of the NBT-positive cells in a single treatment with 1α,25-dihydroxyvitamin D3 (1×10^−8 M) were plotted against the treating concentration of the compounds of the present invention. […]
In the case of `C=C1/C(=C\C=C2/CCC[C@]3(C)[C@@H]([C@H](C)CC4CC(C)(O)C(=O)N4CCc4ccccc4)CC[C@@H]23)C[C@@H](O)[C@H](C)[C@@H]1O` (stereo partly drawn) [Compound No. 11a, 2α-methyl-1α,25-dihydroxyvitamin D3-26,23-lactam-N-(2-phenethyl)], the concentration for half-maximal inhibition (IC50) amounted to 16 nM. The figure for `C=C1/C(=C\C=C2/CCC[C@]3(C)[C@@H]([C@H](C)C[C@H]4C[C@](C)(O)C(=O)N4CCc4ccccc4)CC[C@@H]23)C[C@@H](O)[C@H](CCCO)[C@@H]1O` [Compound No. 12a, 2α-(3-hydroxypropyl)-1α,25-dihydroxyvitamin D3-26,23-lactam-N-(2-phenethyl)] is 10 nM; for `C=C1/C(=C\C=C2/CCC[C@]3(C)[C@@H]([C@H](C)C[C@H]4C[C@](C)(O)C(=O)N4CCc4ccccc4)CC[C@@H]23)C[C@@H](O)[C@H](OCCCO)[C@@H]1O` [Compound No. 13a, 2α-(3-hydroxypropoxy)-1α,25-dihydroxyvitamin D3-26,23-lactam-N-(2-phenethyl)] it is 52 nM.

For orientation: IC50 means the concentration at which inhibition is half-maximal.
